Biological target: T1, carboxylesterase 1 (CES1) (Homo sapiens, UniProt P23141)
T1 sequence (P23141 18-567): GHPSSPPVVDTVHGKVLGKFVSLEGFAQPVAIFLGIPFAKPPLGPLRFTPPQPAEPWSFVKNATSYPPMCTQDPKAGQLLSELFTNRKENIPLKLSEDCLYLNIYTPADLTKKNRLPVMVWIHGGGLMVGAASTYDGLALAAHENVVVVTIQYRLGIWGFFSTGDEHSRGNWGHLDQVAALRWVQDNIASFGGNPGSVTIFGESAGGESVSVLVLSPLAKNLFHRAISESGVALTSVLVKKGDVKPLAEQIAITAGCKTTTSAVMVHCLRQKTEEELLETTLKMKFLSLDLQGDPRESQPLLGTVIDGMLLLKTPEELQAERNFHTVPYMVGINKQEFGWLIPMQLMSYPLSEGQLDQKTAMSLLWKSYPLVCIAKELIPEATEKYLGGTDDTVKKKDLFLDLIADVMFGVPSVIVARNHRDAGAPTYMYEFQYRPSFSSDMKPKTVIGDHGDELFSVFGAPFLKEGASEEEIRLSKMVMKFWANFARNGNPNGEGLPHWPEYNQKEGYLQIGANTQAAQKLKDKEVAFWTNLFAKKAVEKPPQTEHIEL
Assay: LC-MS/MS of the product of PGD2-G hydrolysis
Assay type: biochemical

## CCCCC[C@H](O)/C=C/[C@H]1C(=O)C[C@H](O)[C@@H]1C/C=C\CCCC(=O)O [PGD2]
  LC-MS/MS of the product of PGD2-G hydrolysis: Our data indicates that PGD2-G/PGD2 is a substrate/product dyad for CES1.

Reference: publication PMC7675540 (ACS Omega, 2020)
